The test system of assay [1] is BMPR2.
The subject of assay [2] is DYRK1/DYRK1A.
Assay [3] addresses AKT3 (Homo sapiens, UniProt Q9Y243). Conditions: 1 μM; Run 1, Run 2.
In assay [4] the target is CAMK2g (Homo sapiens, UniProt Q13555). Conditions: 1 μM; Run 1, Run 2.
Assay [5] concerns the target CDK16/cyclin Y (PCTAIRE) (Homo sapiens, UniProt Q00536). As to conditions: 1 μM; Run 1, Run 2.
Assay [6] addresses CDK9/cyclin T1 (Homo sapiens, UniProt P50750). As to conditions: 1 μM; Run 1, Run 2.
In assay [7] the target is T1, NEK8 (Homo sapiens, UniProt Q86SG6).
T1 sequence (Q86SG6 1-692): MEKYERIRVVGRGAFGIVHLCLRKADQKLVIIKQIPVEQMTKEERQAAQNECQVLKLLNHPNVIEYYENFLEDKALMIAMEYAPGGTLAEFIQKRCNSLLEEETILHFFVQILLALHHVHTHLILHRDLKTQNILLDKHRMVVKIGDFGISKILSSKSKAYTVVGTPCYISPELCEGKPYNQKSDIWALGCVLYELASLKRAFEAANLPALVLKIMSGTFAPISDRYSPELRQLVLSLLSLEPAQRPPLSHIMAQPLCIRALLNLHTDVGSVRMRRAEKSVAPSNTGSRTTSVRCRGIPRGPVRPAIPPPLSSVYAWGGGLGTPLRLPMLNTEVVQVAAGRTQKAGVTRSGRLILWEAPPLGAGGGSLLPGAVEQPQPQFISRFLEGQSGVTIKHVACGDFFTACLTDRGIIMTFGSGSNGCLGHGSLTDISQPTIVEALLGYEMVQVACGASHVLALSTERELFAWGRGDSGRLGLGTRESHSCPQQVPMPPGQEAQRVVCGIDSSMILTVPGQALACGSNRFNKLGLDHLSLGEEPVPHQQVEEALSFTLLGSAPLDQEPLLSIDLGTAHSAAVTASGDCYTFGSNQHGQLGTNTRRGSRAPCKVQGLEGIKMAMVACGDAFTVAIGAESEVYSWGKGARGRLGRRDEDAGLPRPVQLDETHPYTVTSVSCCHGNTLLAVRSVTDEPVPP
Conditions: 1 μM; Run 1, Run 2.

Assay [8] addresses P38b/MAPK11 (Homo sapiens, UniProt Q15759). As to conditions: 1 μM; Run 1, Run 2.
The target of assay [9] is PIM2 (Homo sapiens, UniProt Q9P1W9). As to conditions: 1 μM; Run 1, Run 2.
In assay [10] the target is STK33 (Homo sapiens, UniProt Q9BYT3). As to conditions: 1 μM; Run 1, Run 2.
For assay [11], the target named is CK1G3 (Homo sapiens, UniProt Q9Y6M4). Description: biochemical. As to conditions: read-out: % enzyme activity, 1 μM; Run 1, Run 2.
Assay [12] deals with IRR/INSRR (Homo sapiens, UniProt P14616). Description: biochemical. Conditions: read-out: % enzyme activity, 1 μM; Run 1, Run 2.
Assay [13] has as its target JNK1 (Homo sapiens, UniProt P45983). The assay can be described thus: biochemical. Conditions: read-out: % enzyme activity, 1 μM; Run 1, Run 2.
For assay [14], the target named is PAK3 (Homo sapiens, UniProt O75914). The assay can be described thus: biochemical. As to conditions: read-out: % enzyme activity, 1 μM; Run 1, Run 2.
Assay [15] addresses PASK (Homo sapiens, UniProt Q96RG2). Description: biochemical. As to conditions: read-out: % enzyme activity, 1 μM; Run 1, Run 2.
The target in assay [16] is ROS/ROS1 (Homo sapiens, UniProt P08922). The assay can be described thus: biochemical. Conditions: read-out: % enzyme activity, 1 μM; Run 1, Run 2.
In assay [17] the target is RSK4 (Homo sapiens, UniProt Q9UK32). The assay can be described thus: biochemical. As to conditions: read-out: % enzyme activity, 1 μM; Run 1, Run 2.
The target in assay [18] is STK32C/YANK3 (Homo sapiens, UniProt Q86UX6). The assay can be described thus: biochemical. As to conditions: read-out: % enzyme activity, 1 μM; Run 1, Run 2.
Assay [19] deals with T2, TBK1 (Homo sapiens, UniProt Q9UHD2).
T2 sequence (Q9UHD2 1-729): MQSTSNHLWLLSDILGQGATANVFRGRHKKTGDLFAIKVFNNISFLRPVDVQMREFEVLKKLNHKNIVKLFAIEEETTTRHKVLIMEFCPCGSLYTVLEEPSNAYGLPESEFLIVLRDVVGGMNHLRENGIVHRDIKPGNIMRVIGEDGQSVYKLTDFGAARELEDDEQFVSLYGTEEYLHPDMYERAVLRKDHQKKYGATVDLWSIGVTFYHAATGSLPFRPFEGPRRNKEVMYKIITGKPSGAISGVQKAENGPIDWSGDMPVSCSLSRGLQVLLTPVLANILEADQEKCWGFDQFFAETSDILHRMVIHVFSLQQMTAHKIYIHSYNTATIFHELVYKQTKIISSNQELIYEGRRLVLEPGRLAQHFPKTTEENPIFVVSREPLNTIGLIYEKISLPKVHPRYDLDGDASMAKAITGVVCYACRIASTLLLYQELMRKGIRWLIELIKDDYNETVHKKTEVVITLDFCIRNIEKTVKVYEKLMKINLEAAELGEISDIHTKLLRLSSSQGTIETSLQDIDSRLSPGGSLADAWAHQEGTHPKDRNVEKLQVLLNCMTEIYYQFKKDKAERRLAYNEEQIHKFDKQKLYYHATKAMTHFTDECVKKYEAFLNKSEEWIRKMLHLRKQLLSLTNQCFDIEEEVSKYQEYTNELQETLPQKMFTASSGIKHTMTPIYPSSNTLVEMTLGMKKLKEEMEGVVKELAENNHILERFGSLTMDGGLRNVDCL
Description: biochemical. Conditions: read-out: % enzyme activity, 1 μM; Run 1, Run 2.

Assay [20] deals with TTBK1 (Homo sapiens, UniProt Q5TCY1). The assay can be described thus: biochemical. As to conditions: read-out: % enzyme activity, 1 μM; Run 1, Run 2.
Assay [21] concerns the target TYK1/LTK (Homo sapiens, UniProt P29376). Description: biochemical. Conditions: read-out: % enzyme activity, 1 μM; Run 1, Run 2.

Where “and” joins values, the source holds several entries; their conditions need not be identical. Equal values may be shown once.

Experimental findings from PMC8213057, “Targeting ALK2: An Open Science Approach to Developing Therapeutics for the Treatment of Diffuse Intrinsic Pontine Glioma” (Journal of Medicinal Chemistry, 2020) are described below.

STK32C/YANK3, sequence (Q86UX6 whole entry): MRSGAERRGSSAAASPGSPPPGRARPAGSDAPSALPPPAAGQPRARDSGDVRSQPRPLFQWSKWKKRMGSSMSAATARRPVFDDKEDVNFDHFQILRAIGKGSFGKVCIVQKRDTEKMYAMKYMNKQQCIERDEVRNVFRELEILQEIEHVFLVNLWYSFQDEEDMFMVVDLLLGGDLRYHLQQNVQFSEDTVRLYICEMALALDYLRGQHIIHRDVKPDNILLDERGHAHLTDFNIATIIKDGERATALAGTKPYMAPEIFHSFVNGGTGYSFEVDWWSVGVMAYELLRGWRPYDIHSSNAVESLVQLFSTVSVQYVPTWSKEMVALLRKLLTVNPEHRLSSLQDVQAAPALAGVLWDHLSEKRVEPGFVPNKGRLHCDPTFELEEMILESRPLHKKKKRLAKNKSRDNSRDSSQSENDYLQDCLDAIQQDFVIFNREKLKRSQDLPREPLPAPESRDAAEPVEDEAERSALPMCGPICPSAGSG
CAMK2g, sequence (Q13555 whole entry): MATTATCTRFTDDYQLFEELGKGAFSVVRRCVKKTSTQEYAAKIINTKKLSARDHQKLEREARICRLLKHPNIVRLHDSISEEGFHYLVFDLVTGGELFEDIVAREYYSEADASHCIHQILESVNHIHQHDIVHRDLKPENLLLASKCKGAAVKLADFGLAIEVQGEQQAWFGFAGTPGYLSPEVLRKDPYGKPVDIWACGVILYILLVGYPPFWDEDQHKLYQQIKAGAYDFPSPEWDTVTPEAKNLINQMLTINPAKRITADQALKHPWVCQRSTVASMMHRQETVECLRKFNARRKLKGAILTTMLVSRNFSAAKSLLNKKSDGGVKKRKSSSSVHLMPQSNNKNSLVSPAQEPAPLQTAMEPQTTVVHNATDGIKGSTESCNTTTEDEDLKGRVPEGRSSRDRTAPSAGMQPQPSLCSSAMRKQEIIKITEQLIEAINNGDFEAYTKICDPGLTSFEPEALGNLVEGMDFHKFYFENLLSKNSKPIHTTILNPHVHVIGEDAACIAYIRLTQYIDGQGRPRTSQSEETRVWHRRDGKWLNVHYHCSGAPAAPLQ
AKT3, sequence (Q9Y243 whole entry): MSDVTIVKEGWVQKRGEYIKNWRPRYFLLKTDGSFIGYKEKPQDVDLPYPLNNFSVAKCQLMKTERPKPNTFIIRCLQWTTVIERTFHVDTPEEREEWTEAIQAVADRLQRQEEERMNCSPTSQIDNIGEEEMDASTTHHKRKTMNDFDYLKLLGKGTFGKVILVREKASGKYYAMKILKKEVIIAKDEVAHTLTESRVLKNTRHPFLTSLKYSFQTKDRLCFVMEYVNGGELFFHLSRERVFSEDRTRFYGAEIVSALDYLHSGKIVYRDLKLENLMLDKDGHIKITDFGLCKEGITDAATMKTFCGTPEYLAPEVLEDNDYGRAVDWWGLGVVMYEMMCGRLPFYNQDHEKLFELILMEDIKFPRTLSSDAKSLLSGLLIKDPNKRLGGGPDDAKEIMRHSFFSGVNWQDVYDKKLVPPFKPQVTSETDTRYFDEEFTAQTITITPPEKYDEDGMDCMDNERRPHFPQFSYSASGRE
JNK1, sequence (P45983 whole entry): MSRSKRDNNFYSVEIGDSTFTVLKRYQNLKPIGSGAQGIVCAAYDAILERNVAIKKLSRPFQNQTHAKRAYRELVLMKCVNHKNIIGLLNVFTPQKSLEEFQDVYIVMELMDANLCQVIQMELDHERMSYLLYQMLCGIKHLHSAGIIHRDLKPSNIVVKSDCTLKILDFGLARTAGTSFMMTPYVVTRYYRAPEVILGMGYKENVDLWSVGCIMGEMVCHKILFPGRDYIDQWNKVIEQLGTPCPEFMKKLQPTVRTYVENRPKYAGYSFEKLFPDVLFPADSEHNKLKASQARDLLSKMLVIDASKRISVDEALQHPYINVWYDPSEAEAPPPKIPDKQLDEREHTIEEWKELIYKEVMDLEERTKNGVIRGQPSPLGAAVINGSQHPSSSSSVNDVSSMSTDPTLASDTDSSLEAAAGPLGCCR
CK1G3, sequence (Q9Y6M4 whole entry): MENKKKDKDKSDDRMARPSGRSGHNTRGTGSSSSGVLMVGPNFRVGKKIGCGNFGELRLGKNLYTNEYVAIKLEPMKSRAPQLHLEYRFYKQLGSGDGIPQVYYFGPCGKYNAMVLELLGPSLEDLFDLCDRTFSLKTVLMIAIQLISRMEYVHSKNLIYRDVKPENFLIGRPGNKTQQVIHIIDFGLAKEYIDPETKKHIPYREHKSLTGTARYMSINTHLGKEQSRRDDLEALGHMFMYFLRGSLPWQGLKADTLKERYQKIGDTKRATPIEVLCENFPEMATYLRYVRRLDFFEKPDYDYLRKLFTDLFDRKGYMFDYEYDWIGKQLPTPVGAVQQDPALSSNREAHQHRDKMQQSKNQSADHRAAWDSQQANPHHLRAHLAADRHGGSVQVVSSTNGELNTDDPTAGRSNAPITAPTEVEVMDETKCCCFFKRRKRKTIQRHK
PAK3, sequence (O75914 whole entry): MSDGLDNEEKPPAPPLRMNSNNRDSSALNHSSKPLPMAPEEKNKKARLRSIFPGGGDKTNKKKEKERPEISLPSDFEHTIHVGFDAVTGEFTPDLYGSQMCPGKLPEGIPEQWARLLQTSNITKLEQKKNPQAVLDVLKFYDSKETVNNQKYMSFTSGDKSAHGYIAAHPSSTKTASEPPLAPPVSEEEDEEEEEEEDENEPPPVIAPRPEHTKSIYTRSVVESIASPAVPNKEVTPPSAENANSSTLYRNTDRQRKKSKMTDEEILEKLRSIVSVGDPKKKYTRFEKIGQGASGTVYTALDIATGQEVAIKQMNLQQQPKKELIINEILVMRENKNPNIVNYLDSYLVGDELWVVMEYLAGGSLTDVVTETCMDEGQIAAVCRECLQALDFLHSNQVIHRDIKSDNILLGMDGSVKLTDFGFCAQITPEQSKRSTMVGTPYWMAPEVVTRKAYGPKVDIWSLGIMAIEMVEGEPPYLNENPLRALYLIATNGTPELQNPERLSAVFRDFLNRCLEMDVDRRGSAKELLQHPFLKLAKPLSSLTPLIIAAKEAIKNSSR
TYK1/LTK, sequence (P29376 17-864): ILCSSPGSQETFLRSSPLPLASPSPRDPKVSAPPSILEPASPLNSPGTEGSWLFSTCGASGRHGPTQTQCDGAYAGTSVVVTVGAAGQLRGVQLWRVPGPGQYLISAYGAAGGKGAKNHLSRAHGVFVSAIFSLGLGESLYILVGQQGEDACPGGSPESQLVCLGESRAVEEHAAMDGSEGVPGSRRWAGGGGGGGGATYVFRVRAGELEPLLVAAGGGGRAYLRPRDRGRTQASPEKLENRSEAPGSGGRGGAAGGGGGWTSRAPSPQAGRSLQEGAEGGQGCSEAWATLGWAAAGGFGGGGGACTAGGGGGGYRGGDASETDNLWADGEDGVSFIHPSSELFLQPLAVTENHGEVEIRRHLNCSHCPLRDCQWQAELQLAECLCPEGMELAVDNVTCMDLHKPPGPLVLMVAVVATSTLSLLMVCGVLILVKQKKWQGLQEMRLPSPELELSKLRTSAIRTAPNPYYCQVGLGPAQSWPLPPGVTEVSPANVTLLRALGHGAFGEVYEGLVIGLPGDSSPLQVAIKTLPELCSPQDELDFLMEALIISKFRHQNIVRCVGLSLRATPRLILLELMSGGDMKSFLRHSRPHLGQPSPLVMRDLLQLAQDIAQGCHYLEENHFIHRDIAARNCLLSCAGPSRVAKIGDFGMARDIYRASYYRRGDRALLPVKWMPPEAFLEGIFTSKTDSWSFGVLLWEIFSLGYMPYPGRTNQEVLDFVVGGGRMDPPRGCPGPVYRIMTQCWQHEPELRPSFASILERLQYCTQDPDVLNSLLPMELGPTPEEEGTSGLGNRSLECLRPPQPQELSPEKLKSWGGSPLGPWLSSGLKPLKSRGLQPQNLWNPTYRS
PIM2, sequence (Q9P1W9 whole entry): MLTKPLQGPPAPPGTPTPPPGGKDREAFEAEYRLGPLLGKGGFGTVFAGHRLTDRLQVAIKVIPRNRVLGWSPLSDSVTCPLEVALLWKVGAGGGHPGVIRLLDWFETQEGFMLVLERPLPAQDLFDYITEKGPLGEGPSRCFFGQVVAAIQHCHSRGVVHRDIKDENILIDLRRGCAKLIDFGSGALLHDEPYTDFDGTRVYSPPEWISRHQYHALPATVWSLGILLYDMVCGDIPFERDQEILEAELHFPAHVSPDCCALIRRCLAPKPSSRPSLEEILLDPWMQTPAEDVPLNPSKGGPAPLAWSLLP
RSK4, sequence (Q9UK32 whole entry): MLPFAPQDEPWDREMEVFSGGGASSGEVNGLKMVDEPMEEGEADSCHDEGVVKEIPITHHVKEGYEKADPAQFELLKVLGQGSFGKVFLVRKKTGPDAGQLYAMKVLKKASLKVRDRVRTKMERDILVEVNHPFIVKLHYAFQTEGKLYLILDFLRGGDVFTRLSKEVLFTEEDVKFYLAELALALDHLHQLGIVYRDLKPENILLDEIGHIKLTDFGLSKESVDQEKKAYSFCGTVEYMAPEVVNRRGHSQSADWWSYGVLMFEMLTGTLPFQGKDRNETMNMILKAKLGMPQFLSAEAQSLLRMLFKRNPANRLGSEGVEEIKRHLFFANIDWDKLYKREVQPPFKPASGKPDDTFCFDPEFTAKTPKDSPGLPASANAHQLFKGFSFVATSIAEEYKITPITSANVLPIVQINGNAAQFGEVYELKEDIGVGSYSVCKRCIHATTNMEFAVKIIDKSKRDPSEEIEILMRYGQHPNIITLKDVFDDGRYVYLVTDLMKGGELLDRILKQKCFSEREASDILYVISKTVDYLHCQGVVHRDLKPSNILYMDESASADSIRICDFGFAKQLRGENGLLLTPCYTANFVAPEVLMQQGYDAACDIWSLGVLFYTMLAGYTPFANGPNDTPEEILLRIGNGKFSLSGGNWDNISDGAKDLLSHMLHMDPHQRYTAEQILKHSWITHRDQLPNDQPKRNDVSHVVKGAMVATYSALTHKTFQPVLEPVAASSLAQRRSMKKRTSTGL

As for `COc1cc(-c2cncc(-c3ccc(N4CCN(C)CC4)cc3)c2C)cc(F)c1C(N)=O` [Compound 26a, 2-Fluoro-6-methoxy-4-(4-methyl-5-(4-(4-methylpiperazin-1-yl)phenyl)pyridin-3-yl)benzamide], the % enzyme activity at 1 μM in assay [1] is 89.1% and 88.4%; in [2] it was 43.3% and 43.1%. Moreover, the “% enzyme activity” value in [3] is reported as 94.73%; in assay [4], 100.65%; in [5], 93.35%; in [6], 90.82%; in assay [7], 98.06%; in assay [8] it was 92.20%. Also, the “% enzyme activity” value in assay [9] turned out to be 95.51%; in [10], 88.77%. In addition, the remaining activity at 1 µM stood at 65.9% in [11]; 108% in assay [12]; 90.6% in [13]; 89.5% in assay [14]; 94% in assay [15]; 87.7% in [16]. The remaining activity at 1 µM in assay [17] came to 96%; in assay [18], 86.8%; in assay [19], 93.6%; in assay [20], 97.3%; in assay [21], 99%.

Consider `COc1cc(-c2cncc(-c3ccc(N4C[C@@H](C)N(C)[C@@H](C)C4)cc3)c2C)cc(F)c1C(N)=O` [Compound 26c, 2-Fluoro-6-methoxy-4-(4-methyl-5-(4-((3R,5S)-3,4,5-trimethylpiperazin-1-yl)phenyl)pyridin-3-yl)benzamide], for which the % enzyme activity at 1 μM was 104% and 100% in assay [1]; 62.4% and 60% in assay [2]. The “% enzyme activity” value turned out to be 98.56% in [3]; 107.66% in assay [4]; 92.26% in assay [5]; 96.85% in assay [6]; 106.54% in assay [7]; 95.51% in [8]. The “% enzyme activity” value in [9] is on record as 98.82%; in [10] it was 96.94%. Moreover, the remaining activity at 1 µM amounted to 78.8% in assay [11]; 121% in assay [12]; 86.9% in [13]; 125% in assay [14]; 99.2% in assay [15]; 97.4% in assay [16]. Further, the remaining activity at 1 µM in assay [17] came to 95.5%; in [18], 93.3%; in assay [19] it was 87.2%; in assay [20] it was 99.4%; in assay [21], 99.3%.
